Test results taken from the NIST ThermoML archive (doi:10.1007/s10765-012-1309-7).

Details: Liquid, Capillary tube (Ostwald / Ubbelohde) method

CC(C)C [2-methylpropane]
Details | kinematic viscosity [m2/s]
285.13 K | 3.1e-07
290.11 K | 2.95e-07
295.11 K | 2.87e-07
300.41 K | 2.72e-07
303.37 K | 2.67e-07
309.08 K | 2.55e-07
313.12 K | 2.46e-07
315.07 K | 2.42e-07
318.2 K | 2.38e-07
320.12 K | 2.35e-07
323.83 K | 2.25e-07
326.11 K | 2.21e-07
330.11 K | 2.14e-07
333.14 K | 2.07e-07
335.12 K | 2.09e-07
340.12 K | 1.97e-07
340.15 K | 1.97e-07
345.15 K | 1.9e-07

CCF [fluoroethane]
Details | kinematic viscosity [m2/s]
233.15 K | 2.93e-07
238.15 K | 2.81e-07
243.15 K | 2.7e-07
248.11 K | 2.58e-07
253.15 K | 2.46e-07
258.12 K | 2.37e-07
263.17 K | 2.28e-07
268.16 K | 2.17e-07
273.16 K | 2.09e-07
278.16 K | 2.01e-07
283.15 K | 1.92e-07
288.13 K | 1.85e-07
293.18 K | 1.78e-07
298.15 K | 1.72e-07
303.12 K | 1.66e-07
308.11 K | 1.62e-07
313.15 K | 1.54e-07
318.15 K | 1.51e-07
320.16 K | 1.49e-07
328.16 K | 1.41e-07
333.15 K | 1.37e-07
338.15 K | 1.31e-07
343.13 K | 1.28e-07
348.15 K | 1.23e-07
353.17 K | 1.21e-07
355.16 K | 1.2e-07
360.16 K | 1.16e-07
366.08 K | 1.12e-07
371.36 K | 1.08e-07
